Results published in article PMC10009755, “Discovery and Characterization of BAY-805, a Potent and Selective Inhibitor of Ubiquitin-Specific Protease USP21” (Journal of Medicinal Chemistry, 2023).
In brackets after ≈: the same amount, converted by molar mass. Read-outs that look alike come from different tables or passages of the source. One block for each molecule: values may come before it.

Key:
[1] = target: T1, Muscarinic M2 (Homo sapiens, UniProt P08172); experiment: Eurofins Panlabs safety screen; type: binding
T1 construct: Eurofins Panlabs

[2] = target: Cannabinoid CB1 (Homo sapiens, UniProt P21554); experiment: Eurofins Panlabs safety screen; type: binding
[3] = target: T2, Opiate δ1 (OP1, DOP) (Homo sapiens, UniProt P41143); experiment: Eurofins Panlabs safety screen; type: binding
T2 construct: Eurofins Panlabs
T2 sequence (P41143 whole entry): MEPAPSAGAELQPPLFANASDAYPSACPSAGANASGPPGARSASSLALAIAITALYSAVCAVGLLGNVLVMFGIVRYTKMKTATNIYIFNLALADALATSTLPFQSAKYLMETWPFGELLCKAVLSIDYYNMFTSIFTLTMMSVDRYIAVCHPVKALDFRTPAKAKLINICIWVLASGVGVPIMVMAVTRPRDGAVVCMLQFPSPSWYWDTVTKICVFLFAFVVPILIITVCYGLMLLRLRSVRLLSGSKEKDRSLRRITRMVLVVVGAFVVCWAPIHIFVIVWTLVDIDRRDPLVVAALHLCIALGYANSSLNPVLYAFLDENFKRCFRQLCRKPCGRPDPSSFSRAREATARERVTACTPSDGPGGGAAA

[4] = target: Androgen (Testosterone) (Homo sapiens, UniProt P10275); experiment: Eurofins Panlabs safety screen; type: binding
[5] = target: T3, Adrenergic α2B (Homo sapiens, UniProt P18089); experiment: Eurofins Panlabs safety screen; type: binding
T3 construct: Eurofins Panlabs

[6] = target: T4, Nicotinic Acetylcholine α3β4 (Homo sapiens, UniProt P30926+P32297); experiment: Eurofins Panlabs safety screen; type: binding
T4 construct: Eurofins Panlabs

[7] = target: T5, Opiate μ (OP3, MOP) (Homo sapiens, UniProt P35372); experiment: Eurofins Panlabs safety screen; type: binding
T5 construct: Eurofins Panlabs
T5 sequence (P35372 whole entry): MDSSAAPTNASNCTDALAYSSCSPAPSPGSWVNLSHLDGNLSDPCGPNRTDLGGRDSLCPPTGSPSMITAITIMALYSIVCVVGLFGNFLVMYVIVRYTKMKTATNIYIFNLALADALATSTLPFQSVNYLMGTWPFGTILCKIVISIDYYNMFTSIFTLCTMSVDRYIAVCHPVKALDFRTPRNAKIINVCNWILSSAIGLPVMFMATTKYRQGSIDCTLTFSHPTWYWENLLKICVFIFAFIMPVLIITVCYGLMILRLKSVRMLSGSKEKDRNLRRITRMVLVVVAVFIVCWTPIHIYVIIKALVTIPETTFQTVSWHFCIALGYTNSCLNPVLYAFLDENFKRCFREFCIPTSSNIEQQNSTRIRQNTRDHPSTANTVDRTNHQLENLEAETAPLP

[8] = target: Dopamine D3 (Homo sapiens, UniProt P35462); experiment: Eurofins Panlabs safety screen; type: binding
[9] = target: Dopamine D1 (Homo sapiens, UniProt P21728); experiment: Eurofins Panlabs safety screen; type: binding
[10] = target: T6, Serotonin (5-Hydroxytryptamine) 5-HT1A (Homo sapiens, UniProt P08908); experiment: Eurofins Panlabs safety screen; type: binding
T6 construct: Eurofins Panlabs

[11] = target: T7, Muscarinic M4 (Homo sapiens, UniProt P08173); experiment: Eurofins Panlabs safety screen; type: binding
T7 construct: Eurofins Panlabs

[12] = target: T8, Muscarinic M3 (Homo sapiens, UniProt P20309); experiment: Eurofins Panlabs safety screen; type: binding
T8 construct: Eurofins Panlabs

[13] = target: T9, Adrenergic α2A (Homo sapiens, UniProt P08913); experiment: Eurofins Panlabs safety screen; type: binding
T9 construct: Eurofins Panlabs
T9 sequence (P08913 whole entry): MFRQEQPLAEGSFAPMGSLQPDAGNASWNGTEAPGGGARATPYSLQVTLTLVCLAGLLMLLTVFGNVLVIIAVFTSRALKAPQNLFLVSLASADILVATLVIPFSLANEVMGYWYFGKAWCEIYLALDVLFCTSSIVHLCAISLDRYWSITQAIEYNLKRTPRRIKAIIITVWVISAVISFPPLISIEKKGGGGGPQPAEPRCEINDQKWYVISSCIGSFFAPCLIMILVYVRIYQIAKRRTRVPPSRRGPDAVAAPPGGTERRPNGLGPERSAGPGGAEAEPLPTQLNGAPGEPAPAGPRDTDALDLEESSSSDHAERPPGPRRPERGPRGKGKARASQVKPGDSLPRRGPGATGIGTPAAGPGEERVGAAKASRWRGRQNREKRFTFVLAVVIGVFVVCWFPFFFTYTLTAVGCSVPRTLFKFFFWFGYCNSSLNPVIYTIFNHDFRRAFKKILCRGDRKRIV

[14] = target: T10, Fms(h) (Homo sapiens, UniProt P07333); experiment: Eurofins kinase panel; type: biochemical
T10 construct: purchased Eurofins (formerly Millipore/Upstate) KinaseProfiler
T10 sequence (P07333 20-972): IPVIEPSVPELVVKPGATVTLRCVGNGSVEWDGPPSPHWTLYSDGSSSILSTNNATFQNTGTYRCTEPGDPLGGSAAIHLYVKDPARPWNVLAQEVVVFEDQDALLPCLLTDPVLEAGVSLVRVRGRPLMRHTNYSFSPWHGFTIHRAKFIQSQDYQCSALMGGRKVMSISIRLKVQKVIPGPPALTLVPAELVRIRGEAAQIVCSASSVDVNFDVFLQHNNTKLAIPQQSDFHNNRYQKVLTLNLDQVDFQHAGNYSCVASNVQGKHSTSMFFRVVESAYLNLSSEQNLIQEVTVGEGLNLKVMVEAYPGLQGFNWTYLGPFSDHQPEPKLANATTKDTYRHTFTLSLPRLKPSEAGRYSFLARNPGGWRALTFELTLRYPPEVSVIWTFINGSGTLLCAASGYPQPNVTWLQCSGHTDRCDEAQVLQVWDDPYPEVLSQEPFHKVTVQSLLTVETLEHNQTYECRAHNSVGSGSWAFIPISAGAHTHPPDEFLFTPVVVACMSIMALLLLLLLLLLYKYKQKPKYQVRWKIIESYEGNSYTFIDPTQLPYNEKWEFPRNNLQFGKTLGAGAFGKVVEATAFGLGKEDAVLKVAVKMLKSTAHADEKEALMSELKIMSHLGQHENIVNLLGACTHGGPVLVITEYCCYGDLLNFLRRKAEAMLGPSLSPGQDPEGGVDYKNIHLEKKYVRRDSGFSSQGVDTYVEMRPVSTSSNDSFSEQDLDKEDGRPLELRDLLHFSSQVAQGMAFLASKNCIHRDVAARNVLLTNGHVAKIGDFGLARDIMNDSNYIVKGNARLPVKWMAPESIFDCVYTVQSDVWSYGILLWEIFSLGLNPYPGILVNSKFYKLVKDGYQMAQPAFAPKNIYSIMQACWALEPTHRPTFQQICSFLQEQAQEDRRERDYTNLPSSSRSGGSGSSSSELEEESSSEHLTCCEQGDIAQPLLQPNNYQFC

[15] = target: T11, Adrenergic α2C (Homo sapiens, UniProt P18825); experiment: Eurofins Panlabs safety screen; type: binding
T11 construct: Eurofins Panlabs

[16] = target: T12, Serotonin (5-Hydroxytryptamine) 5-HT2C (Homo sapiens, UniProt P28335); experiment: Eurofins Panlabs safety screen; type: binding
T12 construct: Eurofins Panlabs
T12 sequence (P28335 33-458): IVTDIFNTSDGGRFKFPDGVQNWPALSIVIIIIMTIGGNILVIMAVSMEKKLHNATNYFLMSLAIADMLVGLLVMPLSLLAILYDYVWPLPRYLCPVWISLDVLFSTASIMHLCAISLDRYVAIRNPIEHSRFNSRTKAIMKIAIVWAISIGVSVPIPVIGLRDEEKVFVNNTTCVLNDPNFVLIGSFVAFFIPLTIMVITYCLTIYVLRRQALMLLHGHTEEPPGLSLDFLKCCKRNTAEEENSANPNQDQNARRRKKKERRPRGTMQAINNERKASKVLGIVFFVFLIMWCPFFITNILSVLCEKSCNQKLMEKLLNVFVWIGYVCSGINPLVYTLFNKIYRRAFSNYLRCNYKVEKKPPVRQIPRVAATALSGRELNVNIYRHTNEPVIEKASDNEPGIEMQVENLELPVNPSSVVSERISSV

[17] = target: T13, Cholinesterase, Acetyl, ACES (Homo sapiens, UniProt P22303); experiment: Eurofins Panlabs safety screen; type: biochemical
T13 construct: Eurofins Panlabs
T13 sequence (P22303 32-614): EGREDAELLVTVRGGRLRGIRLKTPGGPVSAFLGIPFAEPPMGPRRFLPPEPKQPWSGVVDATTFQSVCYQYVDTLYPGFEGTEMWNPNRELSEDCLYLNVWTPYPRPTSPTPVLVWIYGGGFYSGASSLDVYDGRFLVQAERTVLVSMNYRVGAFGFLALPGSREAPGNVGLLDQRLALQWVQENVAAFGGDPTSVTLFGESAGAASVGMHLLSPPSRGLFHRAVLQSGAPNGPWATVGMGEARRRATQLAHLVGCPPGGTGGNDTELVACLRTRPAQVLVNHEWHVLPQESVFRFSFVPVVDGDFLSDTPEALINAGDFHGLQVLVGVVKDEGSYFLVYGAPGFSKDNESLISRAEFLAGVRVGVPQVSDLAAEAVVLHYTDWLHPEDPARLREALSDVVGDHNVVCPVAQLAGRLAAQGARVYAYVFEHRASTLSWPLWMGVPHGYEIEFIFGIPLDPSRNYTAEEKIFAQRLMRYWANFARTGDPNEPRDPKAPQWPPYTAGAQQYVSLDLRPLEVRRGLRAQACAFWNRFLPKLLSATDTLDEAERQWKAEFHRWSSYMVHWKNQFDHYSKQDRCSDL

[18] = target: T14, PRP4(h) (Homo sapiens, UniProt Q13523); experiment: Eurofins kinase panel; type: biochemical
T14 construct: purchased Eurofins (formerly Millipore/Upstate) KinaseProfiler

[19] = target: T15, Adrenergic α1A (Homo sapiens, UniProt P35348); experiment: Eurofins Panlabs safety screen; type: binding
T15 construct: Eurofins Panlabs
T15 sequence (P35348 whole entry): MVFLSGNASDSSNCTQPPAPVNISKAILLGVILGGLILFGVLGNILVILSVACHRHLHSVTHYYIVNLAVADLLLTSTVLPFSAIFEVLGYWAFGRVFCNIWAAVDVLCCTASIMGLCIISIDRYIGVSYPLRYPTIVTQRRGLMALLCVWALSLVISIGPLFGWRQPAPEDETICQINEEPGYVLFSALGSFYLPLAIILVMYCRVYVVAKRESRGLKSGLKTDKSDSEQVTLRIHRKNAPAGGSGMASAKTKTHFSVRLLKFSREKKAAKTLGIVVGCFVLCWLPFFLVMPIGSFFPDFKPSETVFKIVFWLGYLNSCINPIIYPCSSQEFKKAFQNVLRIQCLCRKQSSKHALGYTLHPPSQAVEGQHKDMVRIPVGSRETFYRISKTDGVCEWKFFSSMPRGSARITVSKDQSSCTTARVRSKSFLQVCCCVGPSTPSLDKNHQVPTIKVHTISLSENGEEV

[20] = target: T16, Serotonin (5-Hydroxytryptamine) 5-HT2B (Homo sapiens, UniProt P41595); experiment: Eurofins Panlabs safety screen; type: binding
T16 construct: Eurofins Panlabs
T16 sequence (P41595 whole entry): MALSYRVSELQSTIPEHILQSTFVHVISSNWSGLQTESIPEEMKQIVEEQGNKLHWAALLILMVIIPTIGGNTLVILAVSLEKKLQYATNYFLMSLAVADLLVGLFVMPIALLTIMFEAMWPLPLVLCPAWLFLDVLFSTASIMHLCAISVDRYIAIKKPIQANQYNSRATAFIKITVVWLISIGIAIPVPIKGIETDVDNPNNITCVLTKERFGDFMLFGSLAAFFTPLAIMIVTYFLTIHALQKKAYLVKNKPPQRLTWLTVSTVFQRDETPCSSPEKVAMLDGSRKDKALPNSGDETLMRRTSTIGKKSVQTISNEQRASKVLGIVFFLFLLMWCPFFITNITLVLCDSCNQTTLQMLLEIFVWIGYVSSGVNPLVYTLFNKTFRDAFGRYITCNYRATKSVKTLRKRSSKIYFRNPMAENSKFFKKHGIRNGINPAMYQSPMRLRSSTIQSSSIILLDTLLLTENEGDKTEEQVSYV

[21] = target: Dopamine D2L (Homo sapiens, UniProt P14416); experiment: Eurofins Panlabs safety screen; type: binding
[22] = target: Cannabinoid CB2 (Homo sapiens, UniProt P34972); experiment: Eurofins Panlabs safety screen; type: binding
Cannabinoid CB2, sequence (P34972 whole entry): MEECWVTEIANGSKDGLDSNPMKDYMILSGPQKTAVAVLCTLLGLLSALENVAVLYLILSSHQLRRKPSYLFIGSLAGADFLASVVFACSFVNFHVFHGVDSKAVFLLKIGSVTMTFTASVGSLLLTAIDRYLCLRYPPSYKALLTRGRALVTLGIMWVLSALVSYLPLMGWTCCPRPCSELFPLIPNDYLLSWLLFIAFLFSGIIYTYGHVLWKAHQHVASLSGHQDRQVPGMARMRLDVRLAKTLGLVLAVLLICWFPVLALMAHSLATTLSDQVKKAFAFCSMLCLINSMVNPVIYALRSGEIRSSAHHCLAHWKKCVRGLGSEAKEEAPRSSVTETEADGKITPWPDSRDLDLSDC

[23] = target: T17, Serotonin (5-Hydroxytryptamine) 5-HT2A (Homo sapiens, UniProt P28223); experiment: Eurofins Panlabs safety screen; type: binding
T17 construct: Eurofins Panlabs

[24] = target: Dopamine D2S (Homo sapiens, UniProt P14416); experiment: Eurofins Panlabs safety screen; type: binding
Dopamine D2S, sequence (P14416 1-414 isoform P14416-2): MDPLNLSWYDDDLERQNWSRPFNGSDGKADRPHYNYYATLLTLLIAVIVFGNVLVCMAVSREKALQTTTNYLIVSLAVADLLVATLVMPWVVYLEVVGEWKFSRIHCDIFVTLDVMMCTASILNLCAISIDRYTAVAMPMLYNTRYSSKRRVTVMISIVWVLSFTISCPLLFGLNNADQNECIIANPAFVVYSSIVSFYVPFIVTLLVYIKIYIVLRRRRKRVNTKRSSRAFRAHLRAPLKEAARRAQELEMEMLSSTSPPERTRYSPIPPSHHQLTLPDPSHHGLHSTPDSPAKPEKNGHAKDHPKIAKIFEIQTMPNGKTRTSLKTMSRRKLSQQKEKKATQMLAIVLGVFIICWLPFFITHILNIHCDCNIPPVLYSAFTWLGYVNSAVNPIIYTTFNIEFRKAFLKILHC

[25] = target: T18, Muscarinic M1 (Homo sapiens, UniProt P11229); experiment: Eurofins Panlabs safety screen; type: binding
T18 construct: Eurofins Panlabs

[26] = log D measurement (HPLC); type: physicochemical; details: reverse-phase HPLC, pH 7.5, pH 7.5, HPLC method; read-out: logD7.5
Protocol: log D values at pH 7.5 were recorded using an indirect method for determining hydrophobicity constants by reverse-phase HPLC. A series of compounds with well-known log D values were used for calibration. Test compounds were injected into the same HPLC system. The lipophilicity of compounds was then assessed by comparison to the calibration curve.

[27] = test system: NF-κB activation; experiment: NF-κB reporter assay; type: cell-based; details: HEK293T cells, up to 10 μM
Protocol: Yang and colleagues reported that USP21 inhibition induces NF-κB activation by preventing deubiquitination of RIP1.[15] K63 ubiquitinated RIP1 is required for NF-κB activation, and thus USP21-mediated deubiquitination of RIP1 shuts down the NF-κB pathway.
Four hours after replating, cells were treated with compounds or DMSO (note: DMSO concentrations were kept consistent across all cells). Promega Dual-Luciferase Reporter Assay kit was then used to prepare samples for Firefly and Renilla signal measurement on a CLARIOstar microplate reader (BMG) 20 h after compound treatment. Relative luciferase units were calculated by normalizing the Firefly signal to the background Renilla signal, followed by normalization to DMSO controls of wild-type USP21.

[28] = target: T19, USP21 (Homo sapiens, UniProt Q9UK80); experiment: SPR binding; details: single-cycle kinetics, 15 °C
T19 construct: made in house; host or cells: E. coli BL21(DE3)
Protocol: For binding analysis, a multi-cycle protocol was chosen with a contact time of 60 s, a flow rate of 30 μL/min, and a dissociation time of 200 s. Binding constants were calculated from the steady state using Biacore Insight Evaluation Software, assuming a 1:1 binding model as an average of four titrations. […] Immobilization levels were kept similar to the above. […] The running buffer of the duplicate measurements is 10 mM HEPES, pH 7.4, 150 mM NaCl, 0,005% surfactant P20 further supplemented with 2 mg/mL BSA and 1% DMSO. Affinity and kinetic analysis were performed using Biacore Insight Evaluation Software on double reference subtracted sensorgrams.

[29] = Aqueous solubility; type: physicochemical; details: PBS pH 6.5, pH 6.5, PBS pH 6.5
Protocol: Test compounds were applied as DMSO solutions or directly from powder. After the addition of the buffer, solutions were shaken at rt for 24 h. The undissolved material was removed by filtration or centrifugation. The compound dissolved in the supernatant was quantified by HPLC-UV or HPLC-MS/MS.

[30] = in vitro; type: in vitro ADME; details: human, Caco-2, pH 7.2
Protocol: Caco-2 cells [purchased from the German Collection of Microorganisms and Cell Cultures (DSMZ)] were seeded at a density of 4.5 × 10^4 cells/well on 24-well insert plates [0.4 μm pore size, 0.3 cm^2 (Costar)] and grown for 13–15 days in DMEM medium supplemented with 10% fetal calf serum (FCS), 1% GlutaMAX (100×, Gibco), 100 U/mL penicillin, 100 μg/mL streptomycin (Gibco), and 1% nonessential amino acids (100×, Thermo Fischer Scientific). […] The medium was changed every 2–3 days.
The bidirectional transport assay for the evaluation of Caco-2 permeability was undertaken in 24-well insert plates using a robotic system (Tecan). Before the assay was run, the culture medium was replaced by a transport medium (FCS-free HEPES carbonate transport buffer pH 7.2). For the assessment of monolayer integrity, the transepithelial electrical resistance (TEER) was measured. Only monolayers with a TEER of at least 400 Ω·cm^2 were used. Test compounds were pre-dissolved in DMSO and added either to the apical or basolateral compartment at a final concentration of 2 μM. The evaluation was performed in triplicate. […] The efflux ratio (ER) basolateral (B) to apical (A) was calculated by dividing Papp B–A by Papp A–B.

[31] = target: T20, C-terminal HiBiT-tagged USP21 (Homo sapiens, UniProt Q9UK80); experiment: USP21 HiBiT CETSA; type: cell-based; details: 49 °C, HEK293T cells
T20 construct: expressed in transfected cells; host or cells: HEK293T
T20 sequence (Q9UK80 1-565): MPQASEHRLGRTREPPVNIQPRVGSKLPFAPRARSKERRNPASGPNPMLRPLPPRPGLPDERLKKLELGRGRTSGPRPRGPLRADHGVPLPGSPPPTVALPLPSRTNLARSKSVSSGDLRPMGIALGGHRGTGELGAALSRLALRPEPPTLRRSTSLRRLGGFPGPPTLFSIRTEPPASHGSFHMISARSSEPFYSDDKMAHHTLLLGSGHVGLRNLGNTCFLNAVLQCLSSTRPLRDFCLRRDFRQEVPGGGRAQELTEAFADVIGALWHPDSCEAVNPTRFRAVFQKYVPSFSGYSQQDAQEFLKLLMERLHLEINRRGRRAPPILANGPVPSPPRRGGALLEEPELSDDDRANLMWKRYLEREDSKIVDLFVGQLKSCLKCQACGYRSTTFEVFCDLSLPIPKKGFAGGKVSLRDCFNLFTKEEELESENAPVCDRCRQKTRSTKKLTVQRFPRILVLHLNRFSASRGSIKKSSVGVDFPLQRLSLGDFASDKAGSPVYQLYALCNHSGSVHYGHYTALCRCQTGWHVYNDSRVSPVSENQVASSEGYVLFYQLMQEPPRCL
Protocol: In particular, we utilized a HiBiT CETSA assay format[42],[43] conducted in intact HEK293T cells. Cells were transfected with USP21 fused to a small proluminescent NanoLuc HiBiT tag, which, when complemented with the Large BiT NanoLuc fragment, produces a quantifiable luminescence signal.
HEK293T cells were seeded in a six-well plate at 8 × 10^5 cells/well in 2 mL of DMEM supplemented with 10% FBS, penicillin (100 U/mL), and streptomycin (100 μg/mL) and transfected 4 h after seeding using an X-tremeGENE HP transfection reagent, following the manufacturer’s instructions with a total of 2 μg of plasmid constructs (C-terminally tagged USP21 HiBiT and empty pCDNA3.1 vector). […] The breathable paper adhesive film was then replaced with a PCR adhesive film, and cells were heated at indicated temperatures in an Applied Biosystems VeritiPro thermal cycler for 3 min, followed by 3 min incubation at rt before the addition of LgBiT solution (200 nM LgBiT, 2% NP-40, protease inhibitors (Roche cOmplete, ethylenediaminetetraacetic acid (EDTA)-free Protease Inhibitor) in OptiMEM no phenol red (Gibco)) to lyse cells.

[32] = target: T21, USP21 (Homo sapiens, UniProt Q9UK80)
T21 sequence (Q9UK80 1-565): T20 sequence (Q9UK80 1-565)
Protocol: To this end, we developed a USP21 activity assay that is based on the deubiquitination of a STING-derived peptide (a USP21-specific substrate[17],[18]) by purified recombinant human full-length USP21 using time-resolved fluorescence resonance energy transfer (TR-FRET) technology (referred to as a homogeneous time-resolved fluorescence (HTRF)-assay, for details see the Supporting Information).[39]
All substrate and enzyme solutions were diluted in an assay buffer. […] Incubation time was 15–20 min at room temperature. […] The stop solution (DUB inhibitor PR619, Abcam) was prepared in 25 mM HEPES, pH 7.5 (Alfa Aesar) containing 0.01% BSA and then left for 10 min at room temperature before filtering with a 0.2 μM PES Membrane (Thermo Fisher). The reaction was stopped with the addition of 2 μL of 200 μM PR619. […] The plates were measured on the ViewLux in screening or PHERAstar FSX in compound profiling. […] The number of flashes per well was set to 3. All of the experimental data were plotted using Genedata analysis. The Z′-factor and S/B of the assay were >0.7 and ∼2, respectively.

[33] = target: T21, USP21; remark: listed apart in the source
Protocol: The final assay volume was 6 μL. […] First, 2 μL of 1 nM USP21 (or selectivity enzyme) solution was added to the compound plate and preincubated for 15–20 min at room temperature. […] The reaction was stopped by 50 mM citric acid in 25 mM HEPES, pH 7.5, containing 0.01% BSA. […] The USP21 and USP22 were measured with five flashes and USP2 and USP7 in fly mode.

[34] = target: T21, USP21; experiment: Thermal shift assay (TSA); type: binding; set-up: purchased Ubiquigent (DUBprofiler service); details: 100 μM compound
Protocol: Experiments were carried out with the QuantStudio7 Flex Real-Time PCR system (Thermo Fisher Scientific) in a 384-well plate format with 5 μL of reaction volume. Melting curves were obtained at an USP21 protein concentration of 3.8 μM and 5xSYPRO Orange (Invitrogen) using a buffer containing 20 mM Tris, pH 7.5; 150 mM NaCl; 10% glycerol; and 1.0 mM TCEP. […] For binding experiments, compounds were added from 10 mM stock solution to a final concentration of 100 μM. As a control, 1% DMSO was used. Scans were measured from 25 to 95 °C at a scanning rate of 4 °C/min. All TSA data were analyzed using a Genedata Assay Analyzer.

[35] = target: T22, USP2 (Homo sapiens, UniProt O75604); experiment: hUSP2 Ub-rhodamine 110 assay; type: biochemical; details: arithmetic means of multiple measurements; read-out: IC50 hUSP2 Ub-Rhod
T22 construct: His tag
T22 sequence (O75604 259-605): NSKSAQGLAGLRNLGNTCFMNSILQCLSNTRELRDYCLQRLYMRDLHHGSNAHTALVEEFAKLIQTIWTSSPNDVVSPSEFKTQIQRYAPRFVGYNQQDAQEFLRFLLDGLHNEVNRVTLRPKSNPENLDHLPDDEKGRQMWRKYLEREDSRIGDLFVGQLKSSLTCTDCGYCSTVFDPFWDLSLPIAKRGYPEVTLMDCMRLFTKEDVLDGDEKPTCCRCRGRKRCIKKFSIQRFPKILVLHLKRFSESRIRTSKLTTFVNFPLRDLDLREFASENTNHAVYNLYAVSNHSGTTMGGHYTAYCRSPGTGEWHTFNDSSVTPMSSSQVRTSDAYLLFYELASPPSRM
Protocol: The final assay volume was 6 μL.

Structure (SMILES): CC(C)C[C@@H](NC(=O)C1(C(F)(F)F)CCCCC1)C(=O)Nc1nnc(Cc2ccc(C#N)cc2)s1 [Compound 21, N-[(1R)-1-[[5-[(4-Cyanophenyl)methyl]-1,3,4-thiadiazol-2-yl]carbamoyl]-3-methyl-butyl]-1-(trifluoromethyl)cyclohexanecarboxamide]
inhibition at 10 µM [1]: 2%
inhibition at 10 µM [2]: 8%
inhibition at 10 µM [3]: -5%
inhibition at 10 µM [4]: 4%
inhibition at 10 µM [5]: 4%
inhibition at 10 µM [6]: -3%
inhibition at 10 µM [7]: -1%
inhibition at 10 µM [8]: 9%
inhibition at 10 µM [9]: -3%
inhibition at 10 µM [10]: 2%
inhibition at 10 µM [11]: -4%
inhibition at 10 µM [12]: 7%
inhibition at 10 µM [13]: 14%
inhibition at 10 µM [14]: 3.41%
inhibition at 10 µM [15]: 6%
inhibition at 10 µM [16]: -5%
IC50 [17]: 7.61 µM
inhibition at 10 µM [17]: 72%
inhibition at 0.1 µM ([17]; IC50 determination, 0.1 µM): 15%
inhibition at 0.3 µM ([17]; IC50 determination, 0.3 µM): 16%
inhibition at 1 µM ([17]; IC50 determination, 1 µM): 11%
inhibition at 3 µM ([17]; IC50 determination, 3 µM): 4%
inhibition at 10 µM ([17]; IC50 determination): 74%
inhibition at 30 µM ([17]; IC50 determination, 30 µM): 74%
inhibition at 10 µM [18]: 8.18%
inhibition at 10 µM [19]: 1%
inhibition at 10 µM [20]: 3%
inhibition at 10 µM [21]: 8%
inhibition at 10 µM [22]: 1%
inhibition at 10 µM [23]: 4%
inhibition at 10 µM [24]: 24%
inhibition at 10 µM [25]: 18%

chromatographic logD [26]: 2.5
Kd [28]: 0.0058 µM
solubility at 24 h [29]: 91.2 µM (≈ 43.9 µg/mL)
Papp A→B at 2 h, 2 µM ([30]; 2 μM, 2 h): 1.4 ×10⁻⁶ cm/s
efflux ratio at 2 h, 2 µM ([30]; Papp B–A / Papp A–B, read-out: Caco-2 efflux ratio (ER)): 14
cellular thermal stabilization of USP21 (in words) [31]: strong cellular target engagement
Structure (SMILES): N#Cc1ccc(Cc2nnc(NC(=O)[C@@H](CO)NC(=O)C3(C(F)(F)F)CCCCC3)s2)cc1 [Compound 18, OC[C@@H](NC(=O)C1(CCCCC1)C(F)(F)F)C(=O)Nc2nnc(Cc3ccc(cc3)C#N)s2]
NF-κB activation (in words) [27]: cellular activity was not observed

Structure (SMILES): O=C(CNC(=O)C1CCCC1)Nc1nnc(Cc2ccc([N+](=O)[O-])cc2)s1 [Compound 2, [O-][N+](=O)c1ccc(Cc2nnc(NC(=O)CNC(=O)C3CCCC3)s2)cc1]
chromatographic logD [26]: 2.1
IC50 [32]: > 25 µM
IC50 [33]: > 25 µM
ΔTm at 100 µM [34]: 3.5 °C
IC50 [35]: > 25 µM
